Experiments:
[1] = biological target: T1, 5-hydroxytryptamine receptor 2C (Homo sapiens, UniProt P28335); assay: Binding affinity at 5-HT2C receptor by radioligand displacement assay
T1 sequence (P28335 whole entry): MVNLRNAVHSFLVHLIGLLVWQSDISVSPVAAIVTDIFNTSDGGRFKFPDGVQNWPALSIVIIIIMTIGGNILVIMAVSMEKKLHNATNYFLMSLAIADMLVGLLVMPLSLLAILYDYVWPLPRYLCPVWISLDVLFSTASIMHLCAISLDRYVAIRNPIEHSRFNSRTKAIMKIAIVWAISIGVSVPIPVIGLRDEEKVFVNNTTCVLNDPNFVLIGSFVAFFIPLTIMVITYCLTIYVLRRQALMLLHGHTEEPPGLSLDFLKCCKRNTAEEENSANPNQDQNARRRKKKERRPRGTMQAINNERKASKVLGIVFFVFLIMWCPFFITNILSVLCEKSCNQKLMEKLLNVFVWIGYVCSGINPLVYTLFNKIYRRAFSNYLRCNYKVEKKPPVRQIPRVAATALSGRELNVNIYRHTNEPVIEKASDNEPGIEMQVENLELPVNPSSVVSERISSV

[2] = biological target: 5-hydroxytryptamine receptor 2A (Homo sapiens, UniProt P28223); assay: Binding affinity at 5-HT2A receptor by radioligand displacement assay
Histamine H1 receptor = Histamine H1 receptor (Homo sapiens, UniProt P35367); assay: Displacement of [3H]-Pyrilamine from human histamine H1 receptor by liquid scintillation counter
D(4) dopamine receptor = biological target: T2, D(4) dopamine receptor (Rattus norvegicus, UniProt P30729); assay: Displacement of [3H]-N-methylspiperone from rat dopamine D4 receptor
T2 sequence (P30729 whole entry): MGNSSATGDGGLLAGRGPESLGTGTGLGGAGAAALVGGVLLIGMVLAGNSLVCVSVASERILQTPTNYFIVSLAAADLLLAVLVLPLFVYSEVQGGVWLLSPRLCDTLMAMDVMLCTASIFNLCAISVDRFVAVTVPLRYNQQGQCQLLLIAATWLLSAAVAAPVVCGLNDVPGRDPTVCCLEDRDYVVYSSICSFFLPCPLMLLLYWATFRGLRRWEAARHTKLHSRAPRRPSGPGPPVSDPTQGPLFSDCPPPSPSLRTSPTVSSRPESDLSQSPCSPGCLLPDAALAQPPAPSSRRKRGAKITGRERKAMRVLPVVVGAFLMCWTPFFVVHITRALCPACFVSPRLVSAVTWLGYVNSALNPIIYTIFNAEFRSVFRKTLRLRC

D(2) dopamine receptor = D(2) dopamine receptor (Homo sapiens, UniProt P14416); assay: Displacement of [3H]-N-methylspiperone from dopamine D2 receptor expressed in […] MES-23.5 cells; assay type: cell-based
D(3) dopamine receptor = D(3) dopamine receptor (Homo sapiens, UniProt P35462); assay: Displacement of [3H]-N-methylspiperone from dopamine D3 receptor expressed in […] MES-23.5
[3] = biological target: T3, 5-hydroxytryptamine receptor 1A (Homo sapiens, UniProt P08908); assay: Displacement of [3H]8-OH-DPAT from 5-HT1A receptor expressed in CHO cells after 20 mins by liquid scintillation counting; assay type: cell-based
T3 sequence (P08908 whole entry): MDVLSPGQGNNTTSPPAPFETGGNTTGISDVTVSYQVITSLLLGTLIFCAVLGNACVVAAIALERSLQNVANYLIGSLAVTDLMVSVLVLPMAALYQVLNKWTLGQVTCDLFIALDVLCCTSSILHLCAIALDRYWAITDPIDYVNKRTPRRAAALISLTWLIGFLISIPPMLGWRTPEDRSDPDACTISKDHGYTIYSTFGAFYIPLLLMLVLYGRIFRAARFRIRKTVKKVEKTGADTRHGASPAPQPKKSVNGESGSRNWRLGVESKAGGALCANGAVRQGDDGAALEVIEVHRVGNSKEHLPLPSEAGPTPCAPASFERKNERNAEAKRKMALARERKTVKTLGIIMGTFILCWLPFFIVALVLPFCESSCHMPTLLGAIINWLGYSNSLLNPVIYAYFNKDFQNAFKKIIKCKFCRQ

Sequence of D(3) dopamine receptor (P35462 whole entry): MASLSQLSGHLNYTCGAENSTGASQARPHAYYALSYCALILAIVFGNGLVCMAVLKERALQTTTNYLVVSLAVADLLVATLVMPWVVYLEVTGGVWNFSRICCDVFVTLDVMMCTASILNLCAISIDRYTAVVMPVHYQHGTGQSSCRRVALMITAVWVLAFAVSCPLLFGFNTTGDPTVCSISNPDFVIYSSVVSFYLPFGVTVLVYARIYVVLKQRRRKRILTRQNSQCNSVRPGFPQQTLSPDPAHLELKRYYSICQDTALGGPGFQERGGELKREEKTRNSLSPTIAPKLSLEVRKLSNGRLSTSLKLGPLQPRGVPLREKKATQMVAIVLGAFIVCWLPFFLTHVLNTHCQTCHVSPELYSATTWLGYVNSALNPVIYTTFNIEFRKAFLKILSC
Sequence of Histamine H1 receptor (P35367 whole entry): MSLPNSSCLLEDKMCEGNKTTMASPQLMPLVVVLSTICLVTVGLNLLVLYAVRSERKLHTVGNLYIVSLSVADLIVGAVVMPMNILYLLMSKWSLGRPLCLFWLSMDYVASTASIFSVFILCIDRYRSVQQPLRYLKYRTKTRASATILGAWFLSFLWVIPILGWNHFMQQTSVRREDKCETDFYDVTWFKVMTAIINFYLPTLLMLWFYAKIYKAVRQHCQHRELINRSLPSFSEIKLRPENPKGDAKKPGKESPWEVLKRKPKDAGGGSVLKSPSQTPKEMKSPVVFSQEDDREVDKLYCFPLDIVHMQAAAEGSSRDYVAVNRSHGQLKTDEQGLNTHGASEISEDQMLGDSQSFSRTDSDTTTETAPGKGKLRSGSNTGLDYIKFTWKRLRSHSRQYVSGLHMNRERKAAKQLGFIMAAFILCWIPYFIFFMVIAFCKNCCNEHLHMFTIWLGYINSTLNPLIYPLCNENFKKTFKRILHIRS
Sequence of D(2) dopamine receptor (P14416 whole entry): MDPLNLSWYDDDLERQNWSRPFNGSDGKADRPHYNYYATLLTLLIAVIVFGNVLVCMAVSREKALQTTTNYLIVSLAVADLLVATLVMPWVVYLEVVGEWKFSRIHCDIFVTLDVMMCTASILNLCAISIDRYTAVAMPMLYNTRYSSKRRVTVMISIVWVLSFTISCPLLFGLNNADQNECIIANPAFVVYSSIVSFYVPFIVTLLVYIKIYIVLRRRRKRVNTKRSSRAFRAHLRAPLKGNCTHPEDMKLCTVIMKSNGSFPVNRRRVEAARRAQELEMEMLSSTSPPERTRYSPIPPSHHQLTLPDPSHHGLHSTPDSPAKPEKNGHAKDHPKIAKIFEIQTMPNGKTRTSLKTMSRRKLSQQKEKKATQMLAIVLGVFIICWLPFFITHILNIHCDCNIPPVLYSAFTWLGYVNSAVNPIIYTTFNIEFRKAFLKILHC
Sequence of 5-hydroxytryptamine receptor 2A (P28223 whole entry): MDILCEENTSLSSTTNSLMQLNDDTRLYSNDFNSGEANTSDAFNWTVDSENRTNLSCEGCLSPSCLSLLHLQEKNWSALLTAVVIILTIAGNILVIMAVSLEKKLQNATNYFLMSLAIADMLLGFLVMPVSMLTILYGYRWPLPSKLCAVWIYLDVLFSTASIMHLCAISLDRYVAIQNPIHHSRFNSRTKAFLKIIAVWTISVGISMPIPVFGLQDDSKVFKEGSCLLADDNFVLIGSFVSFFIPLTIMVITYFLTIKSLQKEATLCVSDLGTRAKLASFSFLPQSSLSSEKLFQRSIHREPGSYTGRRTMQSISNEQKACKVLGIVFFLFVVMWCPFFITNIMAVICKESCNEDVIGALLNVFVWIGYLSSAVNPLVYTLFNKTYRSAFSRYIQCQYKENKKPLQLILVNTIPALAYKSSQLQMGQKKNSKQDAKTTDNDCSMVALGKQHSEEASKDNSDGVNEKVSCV

Row | Structure (SMILES) | Ki ([1]; read-out: Ki) | Ki ([2]; read-out: Ki) | Ki (D(4) dopamine receptor) | Ki (D(2) dopamine receptor; read-out: Ki) | Ki (D(3) dopamine receptor) | Ki ([3]; cho) | Ki (Histamine H1 receptor) | Ki [1] | Ki (Histamine H1 receptor; read-out: Ki) | Ki ([3]; read-out: Ki) | Ki (D(2) dopamine receptor) | Ki [2]
1 | OC1(c2ccc(Cl)cc2)C[C@H]2CC[C@@H](C1)N2CCCOc1ccc(F)cc1 (stereo partly specified) | – | – | – | – | – | – | – | Not Active | – | – | – | –
2 | Fc1ccc(SCCCN2CCCN(c3ccc(Cl)cc3)CC2)cc1 | 2530 nM | 163 nM | – | – | – | – | – | – | 800 nM | – | – | –
3 | Fc1ccc(OCCCN2CCCN(c3ccc(Cl)cc3)CC2)cc1 | > 10000 nM | 567 nM | – | – | – | – | – | – | 509 nM | – | – | –
4 | Clc1ccc(N2CCCN(CCCc3nc4ccccc4s3)CC2)cc1 | – | 696 nM | 431 nM | – | 863 nM | – | – | – | 665 nM | 216 nM | Not Active | –
5 | O=C(CCCCN1CCCN(c2ccc(Cl)cc2)CC1)c1nc2ccccc2s1 | 5920 nM | 1000 nM | 1210 nM | 1980 nM | 1050 nM | – | – | – | 129 nM | 495 nM | – | –
6 | O=C(CCCCN1[C@@H]2CC[C@H]1CC(O)(c1ccc(Cl)cc1)C2)c1nc2ccccc2s1 (stereo partly specified) | – | – | – | – | – | Not Active | – | Not Active | – | – | – | Not Active

Now from value to compound, other results behind:

Row | Ki ([1]; read-out: Ki) | Ki ([2]; read-out: Ki) | Ki (D(4) dopamine receptor) | Ki (D(2) dopamine receptor; read-out: Ki) | Ki (D(3) dopamine receptor) | Ki ([3]; cho) | Ki (Histamine H1 receptor) | Structure (SMILES) | Ki [1] | Ki (Histamine H1 receptor; read-out: Ki) | Ki ([3]; read-out: Ki) | Ki (D(2) dopamine receptor) | Ki [2]
7 | 4100 nM | 510 nM | 123 nM | 139 nM | 3040 nM | – | – | Fc1ccc(CCCCN2CCCN(c3ccc(Cl)cc3)CC2)cc1 | – | 1250 nM | – | – | –
8 | 1420 nM | 159 nM | 28.6 nM | 259 nM | 152 nM | – | – | Clc1ccc(N2CCCN(CCCCc3nc4ccccc4s3)CC2)cc1 | – | 61 nM | 263 nM | – | –
9 | – | – | – | – | – | Not Active | Not Active | Clc1ccc(N2CCCN(Cc3nc4ccccc4s3)CC2)cc1 | Not Active | – | – | – | Not Active
10 | – | 1040 nM | 126 nM | – | 777 nM | Not Active | – | O=C(CCCN1CCCN(c2ccc(Cl)cc2)CC1)c1nc2ccccc2s1 | Not Active | – | – | Not Active | –
